Measurements taken from PubChem BioAssay (NCI).
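All cell lines were grown in 96-well plates and treated with compound for 48 hours. Here, GI50 denotes the concentration required for 50% inhibition of growth. TGI marks complete inhibition of growth.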

Legend:
Experiment in all cases: NCI tumour cell line growth inhibition, 48 h
ACHN renal = tested on: ACHN renal
HOP-92 NSCLC = tested on: HOP-92 NSCLC
K-562 leukemia = tested on: K-562 leukemia
NCI-H522 lung = tested on: NCI-H522 lung
SK-OV-3 ovarian = tested on: SK-OV-3 ovarian
SNB-19 CNS = tested on: SNB-19 CNS
UACC-257 melanoma = tested on: UACC-257 melanoma
UO-31 renal = tested on: UO-31 renal

Structure (SMILES): O=C(O)CNS(=O)(=O)c1ccc(NCc2ccccc2)cc1
- TGI (ACHN renal): > 100 µM
- TGI (HOP-92 NSCLC): > 100 µM
- TGI (K-562 leukemia): > 100 µM
- TGI (NCI-H522 lung): > 100 µM
- TGI (SK-OV-3 ovarian): > 100 µM
- TGI (SNB-19 CNS): > 100 µM
- TGI (UACC-257 melanoma): > 100 µM
- TGI (UO-31 renal): > 100 µM

Structure (SMILES): CCOC(=O)[C]1([Bi]([CH3])[CH3])N=NC(C(=O)OC)=C1C(=O)OC (centres undefined)
- GI50 (ACHN renal): 18 µM
- TGI (ACHN renal): 32.4 µM
- GI50 (HOP-92 NSCLC): 20.4 µM
- TGI (HOP-92 NSCLC): 42.8 µM
- GI50 (K-562 leukemia): 16.5 µM
- TGI (K-562 leukemia): 65.7 µM
- GI50 (SK-OV-3 ovarian): > 100 µM
- TGI (SK-OV-3 ovarian): > 100 µM
- GI50 (SNB-19 CNS): 26 µM
- TGI (SNB-19 CNS): 66 µM
- GI50 (UO-31 renal): 20.3 µM
- TGI (UO-31 renal): 34.5 µM

Structure (SMILES): O=C(/N=N/C(=O)OCc1ccccc1)OCc1ccccc1
- TGI (ACHN renal): > 100 µM
- TGI (HOP-92 NSCLC): 56.8 µM
- TGI (K-562 leukemia): > 100 µM
- TGI (SK-OV-3 ovarian): > 100 µM
- TGI (SNB-19 CNS): > 100 µM
- TGI (UACC-257 melanoma): > 100 µM
- TGI (UO-31 renal): > 100 µM

Structure (SMILES): Brc1cccc(C=NC23CC4CC(CC(C4)C2)C3)c1
- TGI (ACHN renal): > 100 µM
- TGI (HOP-92 NSCLC): > 100 µM
- TGI (K-562 leukemia): > 100 µM
- TGI (NCI-H522 lung): > 100 µM
- TGI (SK-OV-3 ovarian): > 100 µM
- TGI (SNB-19 CNS): > 100 µM
- TGI (UACC-257 melanoma): > 100 µM
- TGI (UO-31 renal): > 100 µM

Structure (SMILES): NC(CCC(=O)NC(CSSCCCCS(=O)O)C(=O)NCC(=O)O)C(=O)O (centres undefined)
- TGI (ACHN renal): > 100 µM
- TGI (K-562 leukemia): > 100 µM
- TGI (NCI-H522 lung): > 100 µM
- TGI (SK-OV-3 ovarian): > 100 µM
- TGI (SNB-19 CNS): > 100 µM
- TGI (UACC-257 melanoma): > 100 µM
- TGI (UO-31 renal): > 100 µM

Structure (SMILES): CCC[CH2][Sn]1([CH2]CCC)[O]Cc2nc(C)ccc2[O]1
- GI50 (ACHN renal): 12 µM
- TGI (ACHN renal): 24.4 µM
- GI50 (HOP-92 NSCLC): 2.52 µM
- TGI (HOP-92 NSCLC): 19.2 µM
- GI50 (K-562 leukemia): 3.17 µM
- TGI (K-562 leukemia): 10.5 µM
- GI50 (NCI-H522 lung): 1.19 µM
- TGI (NCI-H522 lung): 2.5 µM
- GI50 (SK-OV-3 ovarian): 15.8 µM
- TGI (SK-OV-3 ovarian): 29.7 µM
- GI50 (SNB-19 CNS): 3.95 µM
- TGI (SNB-19 CNS): 14.9 µM
- GI50 (UACC-257 melanoma): 5.6 µM
- TGI (UACC-257 melanoma): 20.2 µM
- GI50 (UO-31 renal): 13.3 µM
- TGI (UO-31 renal): 26.1 µM

Structure (SMILES): O=C(/C=C/c1c(O)ccc2ccccc12)c1cccc(O)c1
- TGI (ACHN renal): > 100 µM
- TGI (HOP-92 NSCLC): 99.5 µM
- TGI (K-562 leukemia): > 100 µM
- TGI (NCI-H522 lung): > 100 µM
- TGI (SK-OV-3 ovarian): > 100 µM
- TGI (SNB-19 CNS): > 100 µM
- TGI (UACC-257 melanoma): > 100 µM
- TGI (UO-31 renal): > 100 µM

Structure (SMILES): N#Cc1cc([N+](=O)[O-])ccc1NC(=O)C(=O)Nc1n[nH]c(N)n1
- TGI (ACHN renal): > 100 µM
- TGI (HOP-92 NSCLC): > 100 µM
- TGI (K-562 leukemia): > 100 µM
- TGI (NCI-H522 lung): > 100 µM
- TGI (SK-OV-3 ovarian): > 100 µM
- TGI (SNB-19 CNS): > 100 µM
- TGI (UACC-257 melanoma): > 100 µM
- TGI (UO-31 renal): > 100 µM

Structure (SMILES): CC(=O)CNC(=O)OC(C)(C)C
- TGI (ACHN renal): > 100 µM
- TGI (HOP-92 NSCLC): > 100 µM
- TGI (K-562 leukemia): > 100 µM
- TGI (NCI-H522 lung): > 100 µM
- TGI (SK-OV-3 ovarian): > 100 µM
- TGI (SNB-19 CNS): > 100 µM
- TGI (UACC-257 melanoma): > 100 µM
- TGI (UO-31 renal): > 100 µM

Structure (SMILES): CC(C)C(=O)NC(=S)Nc1ccc([N+](=O)[O-])cc1C#N
- TGI (ACHN renal): > 100 µM
- TGI (HOP-92 NSCLC): > 100 µM
- TGI (K-562 leukemia): > 100 µM
- TGI (NCI-H522 lung): > 100 µM
- TGI (SK-OV-3 ovarian): > 100 µM
- TGI (SNB-19 CNS): > 100 µM
- TGI (UACC-257 melanoma): > 100 µM
- TGI (UO-31 renal): > 100 µM

Structure (SMILES): OCC(O)CC[CH2][Sn]([Br])([c]1ccccc1)[c]1ccccc1 (centres undefined)
- GI50 (ACHN renal): > 100 µM
- TGI (ACHN renal): > 100 µM
- GI50 (HOP-92 NSCLC): > 100 µM
- TGI (HOP-92 NSCLC): > 100 µM
- GI50 (K-562 leukemia): > 100 µM
- TGI (K-562 leukemia): > 100 µM
- GI50 (NCI-H522 lung): 13 µM
- TGI (NCI-H522 lung): 92.1 µM
- GI50 (SK-OV-3 ovarian): > 100 µM
- TGI (SK-OV-3 ovarian): > 100 µM
- GI50 (SNB-19 CNS): > 100 µM
- TGI (SNB-19 CNS): > 100 µM
- GI50 (UACC-257 melanoma): > 100 µM
- TGI (UACC-257 melanoma): > 100 µM
- GI50 (UO-31 renal): > 100 µM
- TGI (UO-31 renal): > 100 µM

Structure (SMILES): CC1=NN(C(=O)Nc2ccccc2)C(=O)C2CCC(=O)N12 (centres undefined)
- TGI (ACHN renal): > 100 µM
- TGI (HOP-92 NSCLC): > 100 µM
- TGI (K-562 leukemia): > 100 µM
- TGI (SK-OV-3 ovarian): > 100 µM
- TGI (SNB-19 CNS): > 100 µM
- TGI (UACC-257 melanoma): > 100 µM
- TGI (UO-31 renal): > 100 µM

Structure (SMILES): [Cl-].[Dy+3].[O-]/N=C(\c1ccccc1)c1ccccn1.[O-]/N=C(\c1ccccc1)c1ccccn1.[O-]/N=C(\c1ccccc1)c1ccccn1
- GI50 (ACHN renal): 34.6 µM
- TGI (ACHN renal): > 100 µM
- GI50 (HOP-92 NSCLC): 41.4 µM
- TGI (HOP-92 NSCLC): > 100 µM
- GI50 (K-562 leukemia): 35.9 µM
- TGI (K-562 leukemia): > 100 µM
- GI50 (NCI-H522 lung): 19.5 µM
- TGI (NCI-H522 lung): 65.6 µM
- GI50 (SK-OV-3 ovarian): 33.9 µM
- TGI (SK-OV-3 ovarian): > 100 µM
- GI50 (SNB-19 CNS): 38 µM
- TGI (SNB-19 CNS): > 100 µM
- GI50 (UACC-257 melanoma): 24.5 µM
- TGI (UACC-257 melanoma): 67.8 µM
- GI50 (UO-31 renal): 25.3 µM
- TGI (UO-31 renal): 65.3 µM

Structure (SMILES): O=C1CCC2(c3ccc(F)cc3)Nc3cc(Cl)ccc3N12 (centres undefined)
- TGI (ACHN renal): > 100 µM
- TGI (K-562 leukemia): > 100 µM
- TGI (NCI-H522 lung): > 100 µM
- TGI (SK-OV-3 ovarian): > 100 µM
- TGI (SNB-19 CNS): > 100 µM
- TGI (UACC-257 melanoma): > 100 µM
- TGI (UO-31 renal): > 100 µM

Structure (SMILES): C/C(CC(=O)Nc1ccc(C)cc1C)=N/N=C(N)N
- TGI (ACHN renal): > 100 µM
- TGI (HOP-92 NSCLC): > 100 µM
- TGI (K-562 leukemia): > 100 µM
- TGI (NCI-H522 lung): > 100 µM
- TGI (SK-OV-3 ovarian): > 100 µM
- TGI (UACC-257 melanoma): > 100 µM
- TGI (UO-31 renal): > 100 µM

Structure (SMILES): O=C1O[C@@H](c2ccc3c(c2)OCO3)C2C(=O)O[C@@H](c3ccc4c(c3)OCO4)C12 (some centres undefined)
- TGI (ACHN renal): > 100 µM
- TGI (HOP-92 NSCLC): > 100 µM
- TGI (K-562 leukemia): > 100 µM
- TGI (NCI-H522 lung): > 100 µM
- TGI (SK-OV-3 ovarian): > 100 µM
- TGI (SNB-19 CNS): > 100 µM
- TGI (UACC-257 melanoma): > 100 µM
- TGI (UO-31 renal): > 100 µM

Structure (SMILES): Cc1cc2c(cc1C)[n+](=O)c(C(=O)C/C(=N/NC(=O)CC#N)C(=O)Nc1ccccc1C(F)(F)F)c(C)n2[O-]
- TGI (ACHN renal): > 100 µM
- TGI (K-562 leukemia): > 100 µM
- TGI (NCI-H522 lung): 35.5 µM
- TGI (SK-OV-3 ovarian): > 100 µM
- TGI (SNB-19 CNS): > 100 µM
- TGI (UACC-257 melanoma): > 100 µM

Structure (SMILES): COc1ccc(/C=C/CN(C)CCc2ccccc2)cc1OC
- TGI (ACHN renal): > 100 µM
- TGI (HOP-92 NSCLC): 9.9 µM
- TGI (K-562 leukemia): > 100 µM
- TGI (SNB-19 CNS): > 100 µM
- TGI (UACC-257 melanoma): > 100 µM
- TGI (UO-31 renal): > 100 µM

Structure (SMILES): C/C(CC(=O)Nc1cc(Cl)c(Cl)cc1Cl)=N\NC(N)=O
- TGI (HOP-92 NSCLC): > 100 µM
- TGI (K-562 leukemia): > 100 µM
- TGI (NCI-H522 lung): > 100 µM
- TGI (SK-OV-3 ovarian): > 100 µM
- TGI (UACC-257 melanoma): > 100 µM
- TGI (UO-31 renal): > 100 µM
